From patent US20250066338A1, “CERTAIN 3-AZABICYCLO[3.1.0]HEXANES AS GLP-1 RECEPTOR MODULATORS” (AstraZeneca AB, priority 2021, published 2025)

Key:
human GLP-1R receptor = human GLP-1R receptor (Homo sapiens (Human), UniProt P43220, L260F); test: CHOK1 GLP-1R cAMP Assay; format: cell-based; conditions: CHO-K1 cell line stably expressing human GLP-1R; HTRF cAMP; agonist activity
Method: A cell line stably expressing the human GLP-1R receptor (NM 002062.5, including the naturally-occurring variant Leu260Phe) in a CHO-K1 (ATCC® CCL-61™) was used for assay.
GLP-1 receptor mediated agonist activity was determined in a cell based assay measuring cyclic adenosine monophosphate (cAMP) levels in cells using Homogeneous Time-Resolved Fluorescence (HTRF) cAMP detection kit (CisBio catalog #62AM4PEC, cAMP Gs Dynamic range kit). The cAMP detection method is based on a competitive immunoassay, in which cAMP produced by the cells and cAMP labeled with the dye d2 compete for binding to a Europium-Cryptate-labeled anti-cAMP antibody. The specific HTRF signal is inversely proportional to the concentration of cAMP.
Compounds were added to individual well in 384 well-assay plates (Greiner #784076) using an Echo (LabCyte) dispenser from 10 mM stocks. Varying concentration of compounds were added to wells, and DMSO was used to normalize each well to a volume of 100 nL. A dose response curve of GLP1(7-36)NH2 (Bachem H-6795) was included in each run. 5 μL of cAMP concentration response standards are applied in specified wells in the assay plates. Cryo-preserved cells are thawed and resuspended in assay buffer pre-heated to 37° C. (20 mM HEPES pH 7.4, lx Hank's Balanced Salt Solution (HBSS, Life Technologies #14065) supplemented with 0.1% (w/v) bovine serum albumin (Sigma, A-7030). Cells were centrifuged at 250*g for 5 min at rt, and resuspended in room tempered assay buffer to a final density of 0.16*10^6 cell/mL, to deliver 800 cells/well. 5 μL of assay buffer with 1 mM 3-isobutyl-1-methylxanthin (IBMX; Sigma cat I-7018) was dispensed per well in assay plates using a multidrop combi (Thermo Scientific) subsequently 5 μL of cell suspension was distributed to relevant wells in the assay using a multidrop dispenser. Assay plates were incubated 20 min at rt.
Detection reagents, Europium-Cryptate-labeled anti-cAMP antibody and cAMP labeled with the dye d2, are diluted in lysis buffer, provided by the manufacturer. 5 μL of each detection reagent is supplemented to each assay well using a multidrop dispenser. Assay plates are incubated in the dark for at least one h. The HTRF signal is measured using the HTRF module (excitation: 337 nm, emission A: 665 nm and emission B: 620 nm) in Pherastar FSX (BMG Labtech).
Raw data were converted to pM cAMP using the cAMP standard curve included in each run. Converted data were further analyzed in Genedata Screener (Genedata) and EC50 determinations were made from agonist dose-response curves analyzed with a curve fitting program using a 4-parameter logistic dose response equation (Equation y=A+((B−A)/1+((C/x)^D))) where A is no stimulation, B is full stimulation, C is the EC50 and D is the Hill slope). The percent effect was determined relative to a saturating concentration of a full GLP-1R agonist (GLP1(7-36)NH2 has 100% effect in this assay setup).

[1] = molecular target: GLP-1R in EndoC-βH1 cells (Homo sapiens (Human), UniProt P43220); test: EndoC cAMP Accumulation Assay; format: cell-based; conditions: EndoC-βH1 human pancreatic beta cell line; HTRF cAMP accumulation
Source text: EndoC cAMP Accumulation Assay
A HTRF cAMP assay (cAMP Gs dynamic kit; CisoBio Cat #62AM4PEJ) was used to identify agonists of GLP-1R in a pancreatic insulinoma cell line (EndoC-βH1). […] EndoC-βH1 cells have detectable GLP-1R messenger ribonucleic acid (mRNA) as detected by quantitative polymerase chain reaction (qPCR). […] The EndoC-βH1 cell line is a valid model of human beta cells and applicable for screenings to identify novel drug target candidates (Mol. Metab., 2018, 8, 144-157). CisBio HTRF cAMP kits are based on a competitive immunoassay using cryptate-labelled anti-cAMP antibody and d2-labeled cAMP. The detection kit is intended for the direct quantitative determination of cAMP. The specific signal (i.e. energy transfer) is inversely proportional to the concentration of cAMP in the standard or sample. Test compounds (10 mM in DMSO) were diluted into assay buffer (HBSS (Sigma #H8264) supplemented with 25 mM HEPES (Gibco #15630, pH 7.4), 0.1% BSA (Sigma #A3059) and 0.5 mM IBMX (Sigma #17018) included fresh on the day of the assay) into 96 well U-bottom plates (Greiner #650201). Diluted compounds were transferred to ECHO source polypropylene plates (Labcyte #P-05525) and dose response curves were dispensed acoustically using ECHO 550 into black shallow-well u-bottom 384-well HTRF Assay Plates (Corning 4514).
Cryovials of EndoC-H1 (supplied at 1×10e^7 cells/vial) were used directly for screening. The cryovials and were removed from N2 (1) and thawed rapidly in a 37° C. water bath. The cells were resuspended in assay buffer and centrifuged at 300 g for 5 min. Cells were resuspended in assay buffer at the appropriate concentration, typically at 12e5 cells per mL (3000 cells per well, dependent on cell batch) and 2.5 μL diluted cells were added to all wells of destination plate by Multidrop combi reagent dispenser (Thermofisher). The plates were incubated at rt for 30 min. The assay was stopped by adding 2.5 μL anti-cAMP cryptate solution to all wells and 2.5 μL cAMP-d2 solution (both diluted 1:20 in lysis buffer) to columns 1-22 by Combi drop. A volume of 2.5 μL cAMP-d2 solution was added to wells E23 to P24 and 2.5 μL lysis buffer added to wells A23 to D24 by multichannel pipette. The plates were incubated at rt for 1 h and read on an Envision plate reader using excitation wavelength of 320 nm and emission of […] and 660 nm.
Raw data from Envision is converted to % DeltaF according to the manufacturer's instructions. Dose response curves are analysed via 4-Parameter Logistical Analysis and assay plate Z′ values obtained. Samples are graphed as percentage (%) activation plots compared to GIP (1-42, Bachem H-5645) with assay window defined by negative control as basal cell cAMP levels and positive control are defined by maximum GIP (82.5 nM) signal. GLP1 (7-36 amide, Bachem H-6795) dose response curve was included on all plates.

human GLP-1R receptor, sequence (P43220 24-463 L260F): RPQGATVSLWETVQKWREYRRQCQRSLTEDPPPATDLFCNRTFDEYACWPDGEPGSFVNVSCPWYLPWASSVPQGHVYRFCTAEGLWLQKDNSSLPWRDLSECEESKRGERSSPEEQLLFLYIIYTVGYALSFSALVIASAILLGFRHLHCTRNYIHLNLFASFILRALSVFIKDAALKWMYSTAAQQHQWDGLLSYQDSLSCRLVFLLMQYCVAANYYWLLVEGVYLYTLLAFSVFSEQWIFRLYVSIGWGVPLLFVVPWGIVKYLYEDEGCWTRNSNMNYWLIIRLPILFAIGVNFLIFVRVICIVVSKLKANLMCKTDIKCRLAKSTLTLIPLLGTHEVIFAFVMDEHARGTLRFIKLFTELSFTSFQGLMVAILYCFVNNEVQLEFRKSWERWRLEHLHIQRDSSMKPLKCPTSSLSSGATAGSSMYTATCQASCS
GLP-1R in EndoC-βH1 cells, sequence (P43220 24-463): as the sequence (P43220 24-463 L260F) above, with F237L counted along it

SMILES | EC50 (human GLP-1R receptor) | EC50 [1]
COc1cc(C(=O)O)cc2c1nc(CN1C[C@@H]3[C@H](C1)[C@H]3c1cccc(OCc3cc(C)ccc3F)n1)n2C[C@@H]1CCO1 [Example 21, 2-(((1R,5S,6S)-6-(6-((2-Fluoro-5-methylbenzyl)oxy)pyridin-2-yl)-3-azabicyclo[3.1.0]hexan-3-yl)methyl)-4-methoxy-1-(((S)-oxetan-2-yl)methyl)-1H-benzo[d]imidazole-6-carboxylic acid] | 44 nM | 1100 nM
CCn1cncc1Cn1c(CN2C[C@@H]3[C@H](C2)[C@H]3c2nc(OCc3ccc(C#N)cc3F)ccc2F)nc2c(OC)cc(C(=O)O)cc21 [Example 7, 2-(((1R,5S,6r)-6-(6-((4-Cyano-2-fluorobenzyl)oxy)-3-fluoropyridin-2-yl)-3-azabicyclo[3.1.0]hexan-3-yl)methyl)-1-((1-ethyl-1H-imidazol-5-yl)methyl)-4-methoxy-1H-benzo[d]imidazole-6-carboxylic acid] | 17 nM | 38 nM
N#Cc1ccc(COc2cccc([C@H]3[C@@H]4CN(Cc5nc6ccc(C(=O)O)cc6n5C[C@@H]5CCO5)C[C@@H]43)n2)c(F)c1 [Example 3, 2-(((1R,5S,6S)-6-(6-((4-Cyano-2-fluorobenzyl)oxy)pyridin-2-yl)-3-azabicyclo[3.1.0]hexan-3-yl)methyl)-1-(((S)-oxetan-2-yl)methyl)-1H-benzo[d]imidazole-6-carboxylic acid] | 75 nM | 21 nM
O=C(O)c1cc(F)c2nc(CN3C[C@@H]4[C@H](C3)[C@H]4c3cccc(OCc4ccc(Cl)cc4F)n3)n(C[C@@H]3CCO3)c2c1 [Example 15, 2-(((1R,5S,6S)-6-(6-((4-Chloro-2-fluorobenzyl)oxy)pyridin-2-yl)-3-azabicyclo[3.1.0]hexan-3-yl)methyl)-4-fluoro-1-(((S)-oxetan-2-yl)methyl)-1H-benzo[d]imidazole-6-carboxylic acid] | 57 nM | 28 nM
COc1cc(C(=O)O)cc2c1nc(CN1C[C@@H]3[C@H](C1)[C@H]3c1cccc(OCc3ccc(C)cc3)n1)n2C[C@@H]1CCO1 [Example 23, 4-Methoxy-2-(((1R,5S,6S)-6-(6-((4-methylbenzyl)oxy)pyridin-2-yl)-3-azabicyclo[3.1.0]hexan-3-yl)methyl)-1-(((S)-oxetan-2-yl)methyl)-1H-benzo[d]imidazole-6-carboxylic acid] | 74 nM | 31 nM
CCn1cncc1Cn1c(CN2C[C@@H]3[C@H](C2)[C@H]3c2cccc(OCc3ccc(C#N)cc3F)n2)nc2ccc(C(=O)O)cc21 [Example 10, 2-(((1R,5S,6r)-6-(6-((4-Cyano-2-fluorobenzyl)oxy)pyridin-2-yl)-3-azabicyclo[3.1.0]hexan-3-yl)methyl)-1-((1-ethyl-1H-imidazol-5-yl)methyl)-1H-benzo[d]imidazole-6-carboxylic acid] | 42 nM | 88 nM
Cc1cc(C(=O)O)cc2c1nc(CN1C[C@@H]3[C@H](C1)[C@H]3c1cccc(OCc3ccc(C#N)cc3F)n1)n2C[C@@H]1CCO1 [Example 9, 2-(((1R,5S,6S)-6-(6-((4-Cyano-2-fluorobenzyl)oxy)pyridin-2-yl)-3-azabicyclo[3.1.0]hexan-3-yl)methyl)-4-methyl-1-(((S)-oxetan-2-yl)methyl)-1H-benzo[d]imidazole-6-carboxylic acid] | 78 nM | 56 nM
O=C(O)c1ccc2nc(CN3C[C@@H]4[C@H](C3)[C@H]4c3nc(OCc4ccc(Cl)cc4F)ccc3F)n(C[C@@H]3CCO3)c2c1 [Example 16, 2-(((1R,5S,6S)-6-(6-((4-Chloro-2-fluorobenzyl)oxy)-3-fluoropyridin-2-yl)-3-azabicyclo[3.1.0]hexan-3-yl)methyl)-1-(((S)-oxetan-2-yl)methyl)-1H-benzo[d]imidazole-6-carboxylic acid] | 47 nM | 24 nM
COc1cc(C(=O)O)cc2c1nc(CN1C[C@@H]3[C@H](C1)[C@H]3c1cccc(OCc3ccc(F)cc3F)n1)n2C[C@@H]1CCO1 [Example 20, 2-(((1R,5S,6S)-6-(6-((2,4-Difluorobenzyl)oxy)pyridin-2-yl)-3-azabicyclo[3.1.0]hexan-3-yl)methyl)-4-methoxy-1-(((S)-oxetan-2-yl)methyl)-1H-benzo[d]imidazole-6-carboxylic acid] | 62 nM | 43 nM
COc1cc(C(=O)O)cc2c1nc(CN1C[C@@H]3[C@H](C1)[C@H]3c1cccc(OCc3ccc(Cl)cc3F)n1)n2C[C@@H]1CCO1 [Example 11, 2-(((1R,5S,6S)-6-(6-((4-Chloro-2-fluorobenzyl)oxy)pyridin-2-yl)-3-azabicyclo[3.1.0]hexan-3-yl)methyl)-4-methoxy-1-(((S)-oxetan-2-yl)methyl)-1H-benzo[d]imidazole-6-carboxylic acid] | 17 nM | 6.5 nM
COc1cc(C(=O)O)cc2c1nc(CN1C[C@@H]3[C@H](C1)[C@H]3c1cccc(OCc3ccccc3OC(F)F)n1)n2C[C@@H]1CCO1 [Example 22, 2-(((1R,5S,6S)-6-(6-((2-(Difluoromethoxy)benzyl)oxy)pyridin-2-yl)-3-azabicyclo[3.1.0]hexan-3-yl)methyl)-4-methoxy-1-(((S)-oxetan-2-yl)methyl)-1H-benzo[d]imidazole-6-carboxylic acid] | 49 nM | 34 nM
